# Source: patent US20230023092A1, “TREATMENT OF DEPRESSION AND OTHER VARIOUS DISORDERS WITH PSILOCYBIN” (COMPASS […], priority 2019, published 2023)
# Assays:
# healthy subjects [1] = assay: CANTAB global composite score; type: in vivo, human; conditions: 10 mg, Day 7
# Procedure: The following list of outcome measures are non-exhaustive. • a. The short-term change from Baseline (Day −1 [Visit 2]) to Day 7 (Visit 5) in cognitive measures of attention, spatial and working memory and executive function was measured by a composite score of the CANTAB Panel (Spatial Working Memory [SWM], Rapid Visual Information Processing [RVP], Paired Associates Learning [PAL]). • b. The short-term change from Baseline (Day −1 [Visit 2]) to Day 7 (Visit 5) in Social Cognition Panel scales (Pictorial Empathy Test [PET], Reading the Mind in the Eyes Test [RMET], Toronto Empathy Questionnaire [TEQ], Social Value Orientation [SVO], Scale of Social Responsibility [SSR]). • c. The change from Baseline (Day −1 [Visit 2]) to Day 28 (Visit 6) in cognitive measures of attention, spatial and working memory and executive function as measured by a composite score of the CANTAB Panel (SWM, RVP, PAL). • d. […] Dose-related differences between cognitive effects of psilocybin at Baseline (Day −1 [Visit 2]), Day 7 (Visit 5) and Day 28 (Visit 6), as measured by a composite score of the CANTAB Panel (SWM, RVP, PAL). • f. Dose-related differences between psychological effects of psilocybin at Baseline (Day −1 [Visit 2]), Day 7 (Visit 5) and Day 84 (Visit 7), as measured by Social Cognition Panel scales (PET, RMET, TEQ, SVO, SSR). • g. […]
# healthy subjects [2] = assay: Positive and Negative Affect Schedule (PANAS); type: in vivo, human; conditions: for PANAS-Negative, change from baseline, Mean / PANAS-Positive, change from baseline, Mean: Post-Treatment Day 0, LS mean; for PANAS-Negative, change from baseline, Mean difference / PANAS-Positive, change from baseline, Mean difference: Post-Treatment Day 0
# Source text: In some embodiments, the Positive and Negative Affect Schedule (PANAS) is used to evaluate the safety and/or efficacy of psilocybin. The PANAS measures the acute emotional drug effects and comprises 2 mood scales that measure positive and negative affect. Positive affect refers to the propensity to experience positive emotions and interact with others positively. Negative affect involves experiencing the world in a more negative way. Subjects respond to 10 questions associated with negative affect and 10 questions associated with positive affect. The questions are scaled using a 5-point scale that ranges from “slightly or not at all (1)” to “extremely (5)”. A total higher score on the positive affect questions indicates more of a positive effect while a lower score on the negative affect questions indicates less of a negative affect. In some embodiments, after treating according to the methods of the disclosure, a subject experiences a decrease in negative affect score of the PANAS, between about 5% and about 100%, for example about 5%, about 10%, about 15%, about 20%, about 25%, about 30%, about 35%, about 40%, about 45%, about 50%, about 55%, about 60%, about 65%, about 70%, about 75%, about 80%, about 85%, about 90%, about 95%, or about 100%, compared to prior to treatment. In some embodiments, after treating according to the methods of the disclosure, a subject experiences an increase in positive affect score of the PANAS, between about 5% and about 100%, for example about 5%, about 10%, about 15%, about 20%, about 25%, about 30%, about 35%, about 40%, about 45%, about 50%, about 55%, about 60%, about 65%, about 70%, about 75%, about 80%, about 85%, about 90%, about 95%, or about 100%, about 110%, about 120%, about 130%, about 140%, about 150%, about 160%, about 170%, about 180%, about 190%, about 200%, about 210%, about 220%, about 230%, about 240%, about 250%, about 260%, about 270%, about 280%, about 290%, or about 300%, or more, compared to prior to treatment.
# The Positive and Negative Affects Schedule (PANAS) score was also evaluated to measure the effect of psilocybin.
smiles,measurement,setting,value
"CN(C)CCc1c[nH]c2cccc(OP(=O)(O)O)c12 [Psilocybin, psilocybin]","CANTAB global composite score, effect size of difference from placebo",healthy subjects [1],0.53
same,"CANTAB global composite score, LS mean difference from placebo",healthy subjects [1]; p value ~0.04460,−0.1832
same,"PANAS negative affect, mean increase from baseline","healthy subjects [2]; 25 mg, Day 0 after treatment",1.3
same,"PANAS-Negative, change from baseline, Mean",healthy subjects [2]; Psilocybin 10 mg,−0.6
same,"PANAS-Positive, change from baseline, Mean",healthy subjects [2]; Psilocybin 10 mg,0.7
same,"PANAS-Negative, change from baseline, Mean difference",healthy subjects [2]; Psilocybin 10 mg-Placebo,−0.5
same,"PANAS-Positive, change from baseline, Mean difference",healthy subjects [2]; Psilocybin 10 mg-Placebo,5.7
same,"PANAS-Negative, change from baseline, Mean",healthy subjects [2]; Psilocybin 25 mg,1.3
same,"PANAS-Positive, change from baseline, Mean",healthy subjects [2]; Psilocybin 25 mg,−0.4
same,"PANAS-Negative, change from baseline, Mean difference",healthy subjects [2]; Psilocybin 25 mg-10 mg,1.9
same,"PANAS-Positive, change from baseline, Mean difference",healthy subjects [2]; Psilocybin 25 mg-10 mg,−1.0
same,"PANAS-Negative, change from baseline, Mean difference",healthy subjects [2]; Psilocybin 25 mg-Placebo,1.4
same,"PANAS-Positive, change from baseline, Mean difference",healthy subjects [2]; Psilocybin 25 mg-Placebo,4.6
